Reference: ChEMBL document CHEMBL1127941, “Norleucine as a replacement for methionine in phosphatase-resistant linear and cyclic peptides which bind to p85 SH2 domains” (Bioorg Med Chem Lett, 1994)
Numbered stars: 1 amine (or outer) side, 2 acyl side, 3 side chain; on linkers, the order of the positions; unused ones are H or OH. Square brackets hold non-standard residues; d marks the D form. Peptide text beside a SMILES is read from it. X2 = O=C([C@@H](Cc1ccc(C(F)(F)OP(=O)(O)O)cc1)N[*:1])[*:2]; X1 = O=C([C@H](Cc1ccc(C(F)(F)OP(=O)(O)O)cc1)N[*:1])[*:2]; Pmp = N[C@@H](Cc1ccc(CP(=O)(O)O)cc1)C(=O)O; pY = N[C@@H](Cc1ccc(OP(=O)(O)O)cc1)C(=O)O; Nle = CCCC[C@H](N)C(=O)O

Assay: Binding affinity to Phosphatidylinositol 3-kinase C-terminal p85 SH2 domain

Structure (SMILES) | ID50
CCCC[C@@H]1NC(=O)[C@H]2CCCN2C(=O)[C@H](C(C)C)NC(=O)[C@@H](Cc2ccc(OP(=O)(O)O)cc2)NC(=O)CNC(=O)[C@@H](CC(C)C)NC1=O | 15.6 µM
CSCC[C@@H]1NC(=O)[C@H]2CCCN2C(=O)[C@H](C(C)C)NC(=O)[C@@H](Cc2ccc(COP(=O)(O)O)cc2)NC(=O)CNC(=O)[C@@H](CC(C)C)NC1=O | 5.2 µM
CSCC[C@@H]1NC(=O)[C@H]2CCCN2C(=O)[C@H](C(C)C)NC(=O)[C@@H](Cc2ccc(OP(=O)(O)O)cc2)NC(=O)CNC(=O)[C@@H](CC(C)C)NC1=O | 1.01 µM
CSCC[C@H](NC(=O)[C@@H]1CCCN1C(=O)[C@@H](NC(=O)[C@H](Cc1ccc(CP(=O)(O)O)cc1)NC(=O)CN)C(C)C)C(=O)N[C@@H](CC(C)C)C(=O)O (H-G[Pmp]VPML-OH) | 0.98 µM
CCCC[C@H](NC(=O)[C@@H]1CCCN1C(=O)[C@@H](NC(=O)[C@H](Cc1ccc(CP(=O)(O)O)cc1)NC(=O)CN)C(C)C)C(=O)N[C@@H](CC(C)C)C(=O)O (H-G[Pmp]VP[Nle]L-OH) | 1.6 µM
CSCC[C@H](NC(=O)[C@@H]1CCCN1C(=O)[C@@H](NC(=O)[C@H](Cc1ccc(OP(=O)(O)O)cc1)NC(=O)CN)C(C)C)C(=O)N[C@@H](CC(C)C)C(=O)O (H-G[pY]VPML-OH) | 0.17 µM
CSCC[C@@H]1NC(=O)[C@@H]2CCCN2C(=O)[C@H](C(C)C)NC(=O)[C@H](Cc2ccc(C(F)(F)OP(=O)(O)O)cc2)NC(=O)CNC(=O)[C@H](CC(C)C)NC1=O (cyclo(G[X1]VPML)) | 2.24 µM
CCCC[C@@H]1NC(=O)[C@@H]2CCCN2C(=O)[C@H](C(C)C)NC(=O)[C@H](Cc2ccc(C(F)(F)OP(=O)(O)O)cc2)NC(=O)CNC(=O)[C@H](CC(C)C)NC1=O (cyclo(G[X1]VP[Nle]L)) | 8.9 µM
CSCC[C@@H]1NC(=O)[C@@H]2CCCN2C(=O)[C@H](C(C)C)NC(=O)[C@@H](Cc2ccc(C(F)(F)OP(=O)(O)O)cc2)NC(=O)CNC(=O)[C@H](CC(C)C)NC1=O (cyclo(G[X2]VPML)) | 32.4 µM
CCCC[C@@H]1NC(=O)[C@@H]2CCCN2C(=O)[C@H](C(C)C)NC(=O)[C@@H](Cc2ccc(C(F)(F)OP(=O)(O)O)cc2)NC(=O)CNC(=O)[C@H](CC(C)C)NC1=O (cyclo(G[X2]VP[Nle]L)) | 59.1 µM
CCCC[C@H](NC(=O)[C@@H]1CCCN1C(=O)[C@@H](NC(=O)C(Cc1ccc(CP(=O)(O)O)cc1)NC(=O)CN)C(C)C)C(=O)N[C@@H](CC(C)C)C(=O)O (single isomer, unassigned) | 109 µM
CSCC[C@H](NC(=O)[C@@H]1CCCN1C(=O)[C@@H](NC(=O)C(Cc1ccc(CP(=O)(O)O)cc1)NC(=O)CN)C(C)C)C(=O)N[C@@H](CC(C)C)C(=O)O (single isomer, unassigned) | 29.4 µM
